IC50 data for eight compounds are collected here from patent US8163724B2, “Glucocorticosteroids, processes for their preparation, pharmaceutical compositions containing them and their use in therapy” (AstraZeneca AB, priority 2007, dated 2012).

For this experiment, the target named is T1, recombinant human GR (Homo sapiens, UniProt P04150).
T1 construct: purchased Panvera/Invitrogen P2812 (kit P2893)
T1 sequence (P04150 1-777): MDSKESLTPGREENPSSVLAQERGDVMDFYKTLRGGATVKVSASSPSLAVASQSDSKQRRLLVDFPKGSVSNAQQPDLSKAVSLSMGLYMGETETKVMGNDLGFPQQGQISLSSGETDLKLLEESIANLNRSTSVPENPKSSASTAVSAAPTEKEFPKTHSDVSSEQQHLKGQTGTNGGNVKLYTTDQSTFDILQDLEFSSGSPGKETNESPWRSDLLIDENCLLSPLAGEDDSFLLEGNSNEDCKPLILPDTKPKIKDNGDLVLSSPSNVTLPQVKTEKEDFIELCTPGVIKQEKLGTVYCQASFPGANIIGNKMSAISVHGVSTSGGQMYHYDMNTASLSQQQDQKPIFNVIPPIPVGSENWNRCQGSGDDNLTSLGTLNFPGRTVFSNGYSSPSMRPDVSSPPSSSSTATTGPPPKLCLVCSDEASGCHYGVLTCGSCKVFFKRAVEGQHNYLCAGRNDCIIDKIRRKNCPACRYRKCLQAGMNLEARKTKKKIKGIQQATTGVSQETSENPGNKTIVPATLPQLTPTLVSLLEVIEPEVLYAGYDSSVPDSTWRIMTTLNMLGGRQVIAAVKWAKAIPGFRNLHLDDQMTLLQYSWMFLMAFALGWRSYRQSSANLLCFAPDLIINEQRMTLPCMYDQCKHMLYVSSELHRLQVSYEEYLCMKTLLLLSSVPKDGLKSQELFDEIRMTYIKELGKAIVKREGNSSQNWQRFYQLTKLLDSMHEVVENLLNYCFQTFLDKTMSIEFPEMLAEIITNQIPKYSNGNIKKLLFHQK
Nature of the experiment: Human Glucocorticoid Receptor (GR) Assay (fluorescence polarization, Panvera/Invitrogen kit). Format: binding. The settings on record: fluorescence polarization; GS Red tracer; 2 hours at room temperature; 100% control 10 μM Dexamethasone; read-out: Inhibition of GR binding, IC50. How it is done:
Human Glucocorticoid Receptor (GR) Assay
The assay is based on a commercial kit from Panvera/Invitrogen (Part number P2893). The assay technology is fluorescence polarization. […] The GR and Stabilizing Peptide reagents are stored at −70° C. while the GS Red is stored at −20° C. Also included in the kit are 1M DTT (Panvera, Part number P2325, stored at −20° C.) and GR Screening buffer 10× (Panvera, Part number P2814, stored at −70° C. initially but once thawed stored at room temperature). Avoid repeated freeze/thaws for all reagents. The GR Screening buffer 10× comprises 100 mM potassium phosphate, 200 mM sodium molybdate, 1 mM EDTA and 20% DMSO.
0% control was 100% DMSO and 100% control was 10 μM Dexamethasone. Background solution (8 μL; assay buffer 10×, Stabilizing Peptide, DTT and ice cold MQ water) was added to the background wells. GS Red solution (7 μL; assay buffer 10×, Stabilizing Peptide, DTT, GS Red and ice cold water) was added to all wells except background wells. GR solution (7 μL; assay buffer 10×, Stabilizing Peptide, DTT, GR and ice cold water) was added to all wells. The plate was sealed and incubated in a dark at room temperature for 2 hours.
Consider `C[C@]12Cc3cnn(-c4ccc(F)cc4)c3C=C1CC[C@@H]1[C@@H]2[C@@H](O)C[C@@]2(C)[C@H]1CC[C@]2(OC(=O)[C@H]1CCCO1)C(=O)SCC#N` (single isomer, unassigned) [Example 128], for which the 50% inhibitory concentration (IC50) worked out at 3.8 nM.

Consider `C[C@]12Cc3cnn(-c4ccc(F)cc4)c3C=C1CC[C@@H]1[C@@H]2[C@@H](O)C[C@@]2(C)[C@H]1CC[C@]2(OC(=O)C1CCCCO1)C(=O)SCC#N` (single isomer, unassigned) [Example 136], for which the 50% inhibitory concentration (IC50) was determined as 4.5 nM.

On to `C[C@]12Cc3cnn(-c4ccc(F)cc4)c3C=C1CC[C@@H]1[C@@H]2[C@@H](O)C[C@@]2(C)[C@H]1CC[C@]2(OC(=O)C1CCCOC1)C(=O)SCC#N` (single isomer, unassigned) [Example 138], for which the IC50 was determined as 3.8 nM.

For `Cc1ncsc1C(=O)O[C@]1(C(=O)SCF)CC[C@H]2[C@@H]3CCC4=Cc5c(cnn5-c5ccc(F)cc5)C[C@]4(C)[C@H]3[C@@H](O)C[C@@]21C` [Example 1, (1R,3aS,3bS,10aR,10bS,11S,12aS)-1-{[(Fluoromethyl)thio]carbonyl}-7-(4-fluorophenyl)-11-hydroxy-10a,12a-dimethyl-1,2,3,3a,3b,4,5,7,10,10a,10b,11,12,12a-tetradecahydrocyclopenta[5,6]naphtho[1,2-f]indazol-1-yl 4-methyl-1,3-thiazole-5-carboxylate], the IC50 was 7.6 nM.

Turning to `Cc1ncsc1C(=O)O[C@]1(C(=O)SCC#N)CC[C@H]2[C@@H]3CCC4=Cc5c(cnn5-c5ccc(F)cc5)C[C@]4(C)[C@H]3[C@@H](O)C[C@@]21C` [Example 2, (1R,3aS,3bS,10aR,10bS,11S,12aS)-1-{[(Cyanomethyl)thio]carbonyl}-7-(4-fluorophenyl)-11-hydroxy-10a,12a-dimethyl-1,2,3,3a,3b,4,5,7,10,10a,10b,11,12,12a-tetradecahydrocyclopenta[5,6]naphtho[1,2-f]indazol-1-yl 4-methyl-1,3-thiazole-5-carboxylate], the half-maximal inhibitory concentration (IC50) is 7.4 nM.

`CCSC(=O)[C@@]1(OC(=O)c2scnc2C)CC[C@H]2[C@@H]3CCC4=Cc5c(cnn5-c5ccc(F)cc5)C[C@]4(C)[C@H]3[C@@H](O)C[C@@]21C` [Example 3, (1R,3aS,3bS,10aR,10bS,11S,12aS)-1-[(Ethylthio)carbonyl]-7-(4-fluorophenyl)-11-hydroxy-10a,12a-dimethyl-1,2,3,3a,3b,4,5,7,10,10a,10b,11,12,12a-tetradecahydrocyclopenta[5,6]naphtho[1,2-f]indazol-1-yl 4-methyl-1,3-thiazole-5-carboxylate]: the concentration for half-maximal inhibition (IC50) came out at 15 nM.

For `Cc1nnsc1C(=O)O[C@]1(C(=O)SCF)CC[C@H]2[C@@H]3CCC4=Cc5c(cnn5-c5ccc(F)cc5)C[C@]4(C)[C@H]3[C@@H](O)C[C@@]21C` [Example 4, (1R,3aS,3bS,10aR,10bS,11S,12aS)-1-{[(Fluoromethyl)thio]carbonyl}-7-(4-fluorophenyl)-11-hydroxy-10a,12a-dimethyl-1,2,3,3a,3b,4,5,7,10,10a,10b,11,12,12a-tetradecahydrocyclopenta[5,6]naphtho[1,2-f]indazol-1-yl 4-methyl-1,2,3-thiadiazole-5-carboxylate], the IC50 stood at 5.9 nM.

On to `CCSC(=O)[C@@]1(OC(=O)c2snnc2C)CC[C@H]2[C@@H]3CCC4=Cc5c(cnn5-c5ccc(F)cc5)C[C@]4(C)[C@H]3[C@@H](O)C[C@@]21C` [Example 5, (1R,3aS,3bS,10aR,10bS,11S,12aS)-1-[(Ethylthio)carbonyl]-7-(4-fluorophenyl)-11-hydroxy-10a,12a-dimethyl-1,2,3,3a,3b,4,5,7,10,10a,10b,11,12,12a-tetradecahydrocyclopenta[5,6]naphtho[1,2-f]indazol-1-yl 4-methyl-1,2,3-thiadiazole-5-carboxylate], for which the IC50 was 15 nM.
